Measurements published in patent US12071453B2, “Neuroactive steroids, compositions, and uses thereof” (Sage Therapeutics, Inc., priority 2013, dated 2024).

Experiments:
[1] = molecular target: T1, GABAA receptors composed of the α1β2γ2 subunits (GABRA1/GABRB2/GABRG2) (Homo sapiens, UniProt P14867+P47870); assay: Two Electrode Voltage Clamp (TEVC), GABA receptor potentiation in Xenopus laevis oocytes, α1β2γ2; format: cell-based; conditions: 10 μM compound, 10 μM GABA, read-out: GABA (α1β2γ2) % efficacy at 10 μM
T1 construct: expressed in transfected cells; host or cells: Xenopus laevis oocytes, injected (ratio 1:1:1)
Description: (§1) The Two Electrode Voltage Clamp (TEVC) technique was used to investigate the effects of compounds at a concentration of 10 μM on GABAA receptors composed of the α1β2γ2 or α4β3δ subunits expressed in oocytes from the Xenopus laevis. GABA-evoked currents were recorded from oocytes that expressed the GABA receptors and the modulatory effects of the test items on these currents were investigated.
(§2) Ovaries were harvested from Xenopus laevis females that had been deeply anesthetized by cooling at 4° C. and immersion in Tricaine methanesulfonate (MS-222 at a concentration of 150 mg/L) in sodium bicarbonate (300 mg/L). Once anesthetized the animal was decapitated and pithed following the rules of animal rights from the Geneva canton. A small piece of ovary was isolated for immediate preparation while the remaining part was placed at 4° C. in a sterile Barth solution containing in mM NaCl 88, KCl 1, NaHCO3 2.4, HEPES 10, MgSO4·7H2O 0.82, Ca(NO3)2·4H2O 0.33, CaCl2·6H2O 0.41, at pH 7.4, and supplemented with 20 μg/ml of kanamycin, 100 unit/ml penicillin and 100 μg/ml streptomycin. All recordings were performed at 18° C. and cells were super-fused with medium containing in mM: NaCl 82.5, KCl 2.5, HEPES 5, CaCl2·2H2O, ·6H2O 1, pH 7.4.
(§3) Plasmids containing the RNAs of the human GABRA1/GABRB2/GABRG2 and GABRA4/GABRB3/GABRD genes were injected into oocytes using a proprietary automated injection device (Hogg el al., J. Neurosci. Methods, (2008) 169: 65-75). These genes encode for the α1β2γ2 and α4β3δ GABAA subunits respectively. Receptor expression was assessed using electrophysiology at least two days later. The ratio of RNA injection for α1β2γ2 was 1:1:1 and for α4β3δ was 5:1:5. Electrophysiological recordings were made using an automated process equipped with standard TEVC and data were captured and analyzed using a proprietary data acquisition and analysis software running under Matlab (Mathworks Inc.). The membrane potential of the oocytes was maintained at −80 mV throughout the experiments. To explore the effects of proprietary compounds, currents were evoked by applying 10 μM (α1β2γ2) or 3 μM (α4β3δ) GABA for 30 s. These concentrations approximated the EC50 concentration of GABA at each receptor subtype. Oocytes were then re-exposed to GABA again for 30 s. 15 s after beginning the GABA application, test article was co-applied at a concentration of 10 μM for 15 s. Potentiation of the peak current was assessed. Data was filtered at 10 Hz, captured at 100 Hz and analyzed using proprietary data acquisition and analysis software running under Matlab (Mathworks Inc.). For statistical analysis values were computed either with Excel (Microsoft) or Matlab (mathworks Inc.). To obtain mean measurements with standard deviations, all experiments were carried out using at least three cells.

[2] = molecular target: T2, GABAA receptors composed of the α4β3δ subunits (GABRA4/GABRB3/GABRD) (Homo sapiens, UniProt P28472+P48169); assay: Two Electrode Voltage Clamp (TEVC), GABA receptor potentiation in Xenopus laevis oocytes, α4β3δ; format: cell-based; conditions: 10 μM compound, 3 μM GABA, read-out: GABA (α4β3δ) % efficacy at 10 μM
T2 construct: expressed in transfected cells; host or cells: Xenopus laevis oocytes, injected (ratio 5:1:5)
Description: as §1, §2, §3

[3] = molecular target: [35S]-TBPS binding in rat brain cortical membranes; assay: Steroid inhibition of [35S]-TBPS binding, rat brain cortical membranes; conditions: 3 nM [35S]-TBPS, in the presence of 5 μM GABA, read-out: 35S-TBPS Radioligand Displacement (IC50)
Description: TBPS binding assays using rat brain cortical membranes in the presence of 5 μM GABA has been described (Gee et al, J. Pharmacol. Exp. Ther. 1987, 241, 346-353; Hawkinson et al, Mol. Pharmacol. 1994, 46, 977-985; Lewin, A. H et al., Mol. Pharmacol. 1989, 35, 189-194).
Briefly, cortices are rapidly removed following decapitation of carbon dioxide-anesthetized Sprague-Dawley rats (200-250 g). The cortices are homogenized in 10 volumes of ice-cold 0.32 M sucrose using a glass/teflon homogenizer and centrifuged at 1500×g for 10 min at 4° C. The resultant supernatants are centrifuged at 10,000×g for 20 min at 4° C. to obtain the P2 pellets. The P2 pellets are resuspended in 200 mM NaCl/50 mM Na—K phosphate pH 7.4 buffer and centrifuged at 10,000×g for 10 min at 4° C. This washing procedure is repeated twice and the pellets are resuspended in 10 volumes of buffer. Aliquots (100 μL) of the membrane suspensions are incubated with 3 nM [^35S]-TBPS and 5 μL aliquots of test drug dissolved in dimethyl sulfoxide (DMSO) (final 0.5%) in the presence of 5 μM GABA. The incubation is brought to a final volume of 1.0 mL with buffer. Nonspecific binding is determined in the presence of 2 μM unlabeled TBPS and ranged from 15 to 25%. Following a 90 min incubation at room temp, the assays are terminated by filtration through glass fiber filters (Schleicher and Schuell No. 32) using a cell harvester (Brandel) and rinsed three times with ice-cold buffer. Filter bound radioactivity is measured by liquid scintillation spectrometry. Non-linear curve fitting of the overall data for each drug averaged for each concentration is done using Prism (GraphPad). […] The concentration of test compound producing 50% inhibition (IC50) of specific binding and the maximal extent of inhibition (Imax) are determined for the individual experiments with the same model used for the overall data and then the mean±SEM.s of the individual experiments are calculated.
Various compounds are or can be screened to determine their potential as modulators of [^35S]-TBPS binding in vitro. These assays are or can be performed in accordance with the above discussed procedures.

T1 sequence (P14867 28-456): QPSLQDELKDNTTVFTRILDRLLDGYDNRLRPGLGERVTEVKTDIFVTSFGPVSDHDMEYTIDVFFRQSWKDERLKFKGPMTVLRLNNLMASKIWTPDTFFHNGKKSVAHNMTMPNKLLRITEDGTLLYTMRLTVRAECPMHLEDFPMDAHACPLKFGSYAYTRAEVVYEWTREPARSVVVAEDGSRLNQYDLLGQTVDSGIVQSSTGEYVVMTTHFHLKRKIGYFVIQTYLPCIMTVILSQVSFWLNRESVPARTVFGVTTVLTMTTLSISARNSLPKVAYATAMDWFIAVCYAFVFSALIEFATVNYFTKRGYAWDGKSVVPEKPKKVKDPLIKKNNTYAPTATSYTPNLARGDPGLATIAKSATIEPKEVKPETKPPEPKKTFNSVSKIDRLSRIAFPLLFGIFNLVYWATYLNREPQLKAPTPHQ
T1 sequence (P47870 26-512): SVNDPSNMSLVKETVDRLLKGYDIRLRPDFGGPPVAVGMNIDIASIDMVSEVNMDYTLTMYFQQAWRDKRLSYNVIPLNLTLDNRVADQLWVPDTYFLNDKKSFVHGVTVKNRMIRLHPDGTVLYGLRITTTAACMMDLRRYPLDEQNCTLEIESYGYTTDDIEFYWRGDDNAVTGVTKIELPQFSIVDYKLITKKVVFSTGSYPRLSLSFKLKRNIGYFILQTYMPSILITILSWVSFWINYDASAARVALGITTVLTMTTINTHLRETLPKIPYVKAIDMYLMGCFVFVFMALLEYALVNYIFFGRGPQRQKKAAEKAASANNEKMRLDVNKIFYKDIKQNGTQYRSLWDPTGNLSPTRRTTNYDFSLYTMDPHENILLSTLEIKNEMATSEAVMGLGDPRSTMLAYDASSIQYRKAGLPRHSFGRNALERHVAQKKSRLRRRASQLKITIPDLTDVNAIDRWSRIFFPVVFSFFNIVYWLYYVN
T1 sequence (P18507 40-475 partner): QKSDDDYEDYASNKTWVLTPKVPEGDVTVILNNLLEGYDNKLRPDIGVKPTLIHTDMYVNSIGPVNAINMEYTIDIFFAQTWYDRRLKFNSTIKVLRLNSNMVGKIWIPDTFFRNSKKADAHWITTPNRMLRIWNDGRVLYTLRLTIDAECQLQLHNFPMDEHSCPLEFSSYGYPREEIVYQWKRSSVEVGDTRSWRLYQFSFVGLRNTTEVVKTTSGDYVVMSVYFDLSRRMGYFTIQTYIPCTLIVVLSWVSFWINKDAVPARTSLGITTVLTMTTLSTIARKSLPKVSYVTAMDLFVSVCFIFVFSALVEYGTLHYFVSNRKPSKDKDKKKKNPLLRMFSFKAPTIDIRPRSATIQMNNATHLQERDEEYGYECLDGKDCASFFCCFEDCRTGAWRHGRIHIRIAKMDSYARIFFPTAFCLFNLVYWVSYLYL
T2 sequence (P48169 36-554): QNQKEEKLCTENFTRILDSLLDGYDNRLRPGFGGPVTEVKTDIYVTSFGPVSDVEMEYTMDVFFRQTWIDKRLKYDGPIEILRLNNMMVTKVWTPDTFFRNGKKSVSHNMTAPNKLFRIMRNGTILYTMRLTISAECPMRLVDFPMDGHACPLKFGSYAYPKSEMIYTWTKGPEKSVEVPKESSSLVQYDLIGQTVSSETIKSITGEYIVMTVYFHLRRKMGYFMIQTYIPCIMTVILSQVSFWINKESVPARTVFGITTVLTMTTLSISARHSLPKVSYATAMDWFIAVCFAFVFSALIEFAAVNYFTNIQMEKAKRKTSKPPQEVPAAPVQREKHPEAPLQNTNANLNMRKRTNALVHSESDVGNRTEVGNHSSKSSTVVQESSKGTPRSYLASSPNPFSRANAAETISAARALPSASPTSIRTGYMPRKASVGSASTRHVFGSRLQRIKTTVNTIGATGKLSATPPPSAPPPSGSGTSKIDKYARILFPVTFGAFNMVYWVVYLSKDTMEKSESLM
T2 sequence (P28472 26-473): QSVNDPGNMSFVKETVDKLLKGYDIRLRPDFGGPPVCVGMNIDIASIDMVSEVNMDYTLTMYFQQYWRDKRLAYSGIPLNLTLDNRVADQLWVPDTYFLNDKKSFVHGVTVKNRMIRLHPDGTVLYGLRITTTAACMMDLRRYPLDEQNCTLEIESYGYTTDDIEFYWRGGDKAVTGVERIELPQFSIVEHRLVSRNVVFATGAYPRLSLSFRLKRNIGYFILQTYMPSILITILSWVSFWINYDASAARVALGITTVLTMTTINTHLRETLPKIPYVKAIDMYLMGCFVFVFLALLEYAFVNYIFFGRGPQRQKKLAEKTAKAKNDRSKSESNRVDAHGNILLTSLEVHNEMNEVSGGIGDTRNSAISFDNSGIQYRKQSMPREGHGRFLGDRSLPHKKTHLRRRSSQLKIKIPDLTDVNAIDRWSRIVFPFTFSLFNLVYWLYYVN
T2 sequence (O14764 25-452 partner): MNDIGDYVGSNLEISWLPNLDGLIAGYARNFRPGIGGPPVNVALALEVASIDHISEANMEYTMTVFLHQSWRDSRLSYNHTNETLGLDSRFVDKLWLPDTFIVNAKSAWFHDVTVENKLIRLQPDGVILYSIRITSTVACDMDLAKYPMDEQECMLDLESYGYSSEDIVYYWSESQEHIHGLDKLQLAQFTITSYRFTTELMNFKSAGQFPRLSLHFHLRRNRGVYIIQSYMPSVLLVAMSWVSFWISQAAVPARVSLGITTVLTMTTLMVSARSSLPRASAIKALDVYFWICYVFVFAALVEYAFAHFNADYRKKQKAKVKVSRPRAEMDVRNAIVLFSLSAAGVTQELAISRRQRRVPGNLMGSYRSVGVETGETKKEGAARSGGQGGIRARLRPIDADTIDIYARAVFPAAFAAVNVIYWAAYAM

Compound	Emax at 10 µM [1]	Emax at 10 µM [2]	IC50 [3]
COC[C@]12CC[C@@](C)(O)C[C@@H]1CC[C@H]1[C@@H]3CC[C@H](C(=O)Cn4cc(Cl)cn4)[C@@]3(C)CC[C@@H]12 [Compound 18]	1000 to 1500%	1000 to 1500%	–
COC[C@]12CC[C@@](C)(O)C[C@@H]1CC[C@H]1[C@@H]3CC[C@H](C(=O)Cn4ccnc4F)[C@@]3(C)CC[C@@H]12 [Compound 21]	50 to 500%	50 to 500%	100 to 500 nM
CCOC[C@]12CC[C@@](C)(O)C[C@@H]1CC[C@H]1[C@@H]3CC[C@H](C(=O)Cn4nnnc4C)[C@@]3(C)CC[C@@H]12 [Compound 26]	500 to 1000%	1000 to 1500%	50 to 100 nM
COC[C@]12CC[C@@](C)(O)C[C@H]1CC[C@H]1[C@@H]3CC[C@H](C(=O)Cn4nnc(C)n4)[C@@]3(C)CC[C@@H]12 [Compound 29]	50 to 500%	500 to 1000%	100 to 500 nM
COC[C@]12CC[C@@](C)(O)C[C@H]1CC[C@H]1[C@@H]3CC[C@H](C(=O)Cn4ccnn4)[C@@]3(C)CC[C@@H]12 [Compound 32]	50 to 500%	1000 to 1500%	50 to 100 nM
COC[C@]12CC[C@@](C)(O)C[C@H]1CC[C@H]1[C@@H]3CC[C@H](C(=O)Cn4cc(S(C)(=O)=O)cn4)[C@@]3(C)CC[C@@H]12 [Compound 33]	50 to 500%	50 to 500%	10 to 50 nM
COC[C@]12CC[C@@](C)(O)C[C@@H]1CC[C@H]1[C@@H]3CC[C@H](C(=O)Cn4ncc5ccncc54)[C@@]3(C)CC[C@@H]12 [Compound 45]	500 to 1000%	1000 to 1500%	50 to 100 nM
COC[C@]12CC[C@@](C)(O)C[C@@H]1CC[C@H]1[C@@H]3CC[C@H](C(=O)Cn4nnc5cccc(F)c54)[C@@]3(C)CC[C@@H]12 [Compound 47]	500 to 1000%	1000 to 1500%	10 to 50 nM
COC[C@]12CC[C@@](C)(O)C[C@@H]1CC[C@H]1[C@@H]3CC[C@H](C(=O)Cn4nnc5c(F)cccc54)[C@@]3(C)CC[C@@H]12 [Compound 48]	500 to 1000%	50 to 500%	10 to 50 nM
COC[C@]12CC[C@@](C)(O)C[C@@H]1CC[C@H]1[C@@H]3CC[C@H](C(=O)Cn4nnc5ccc(OC)cc54)[C@@]3(C)CC[C@@H]12 [Compound 51]	500 to 1000%	1000 to 1500%	10 to 50 nM
COC[C@]12CC[C@@](C)(O)C[C@@H]1CC[C@H]1[C@@H]3CC[C@H](C(=O)Cn4nc5cccc(OC)c5n4)[C@@]3(C)CC[C@@H]12 [Compound 57]	50 to 500%	500 to 1000%	50 to 100 nM
COC[C@]12CC[C@@](C)(O)C[C@@H]1CC[C@H]1[C@@H]3CC[C@H](C(=O)Cn4nnc5c(OC)cccc54)[C@@]3(C)CC[C@@H]12 [Compound 58]	500 to 1000%	500 to 1000%	< 10 nM
COC[C@]12CC[C@@](C)(O)C[C@@H]1CC[C@H]1[C@@H]3CC[C@H](C(=O)Cn4nnc5cccc(Cl)c54)[C@@]3(C)CC[C@@H]12 [Compound 59]	500 to 1000%	500 to 1000%	10 to 50 nM
COC[C@]12CC[C@@](C)(O)C[C@H]1CC[C@H]1[C@@H]3CC[C@H](C(=O)Cn4nnc5c(F)cccc54)[C@@]3(C)CC[C@@H]12 [Compound 82]	500 to 1000%	500 to 1000%	–
COC[C@]12CC[C@@](C)(O)C[C@@H]1CC[C@H]1[C@@H]3CC[C@H](C(=O)Cn4nc5cc(F)c(F)cc5n4)[C@@]3(C)CC[C@@H]12 [Compound 97]	500 to 1000%	–	10 to 50 nM
COC[C@]12CC[C@@](C)(O)C[C@@H]1CC[C@H]1[C@@H]3CC[C@H](C(=O)Cn4nc5cc(Cl)cnc5n4)[C@@]3(C)CC[C@@H]12 [Compound 99]	1000 to 1500%	–	10 to 50 nM
COC[C@]12CC[C@@](C)(O)C[C@@H]1CC[C@H]1[C@@H]3CC[C@H](C(=O)Cn4nnc5cc(Cl)cnc54)[C@@]3(C)CC[C@@H]12 [Compound 100]	500 to 1000%	–	100 to 500 nM
COC[C@]12CC[C@@](C)(O)C[C@@H]1CC[C@H]1[C@@H]3CC[C@H](C(=O)Cn4nnc5ncc(Cl)cc54)[C@@]3(C)CC[C@@H]12 [Compound 101]	500 to 1000%	–	10 to 50 nM
COC[C@]12CC[C@@](C)(O)C[C@@H]1CC[C@H]1[C@@H]3CC[C@H](C(=O)Cn4cc5nccnc5n4)[C@@]3(C)CC[C@@H]12 [Compound 103]	1000 to 1500%	–	> 500 nM
COC[C@]12CC[C@@](C)(O)C[C@@H]1CC[C@H]1[C@@H]3CC[C@H](C(=O)Cn4ncc5cc(F)ccc54)[C@@]3(C)CC[C@@H]12 [Compound 107]	500 to 1000%	–	> 500 nM
COC[C@]12CC[C@@](C)(O)C[C@@H]1CC[C@H]1[C@@H]3CC[C@H](C(=O)Cn4ncc5ccc(F)cc54)[C@@]3(C)CC[C@@H]12 [Compound 110]	500 to 1000%	–	50 to 100 nM
COC[C@]12CC[C@@](C)(O)C[C@@H]1CC[C@H]1[C@@H]3CC[C@H](C(=O)Cn4cc5ccc(F)cc5n4)[C@@]3(C)CC[C@@H]12 [Compound 111]	500 to 1000%	–	50 to 100 nM
COC[C@]12CC[C@@](C)(O)C[C@@H]1CC[C@H]1[C@@H]3CC[C@H](C(=O)Cn4ncc5ccc(Cl)cc54)[C@@]3(C)CC[C@@H]12 [Compound 112]	50 to 500%	–	50 to 100 nM
